Among the data in paper PMC12040169 (PLOS Biology, 2025) are viability values, retold here.

A short description of the data set: in vitro. The following applies: human, hela cells, % viability.

Consider `CC(C)(C)OC(=O)N1CCN(c2ccccc2O)CC1` [CBK003878], for which the viability at 28.5 h, 10 µM came to 94.5%.

With `CC(=O)N(c1ccc2oc3c(c2c1)CCCC3)S(=O)(=O)c1ccc(C(=O)O)cc1` [CBK299808], the viability at 28.5 h, 10 µM amounted to 92.5%.

For `CS(=O)(=O)N1CCN(C2CCN(Cc3ccccc3)CC2)CC1` [CBK263485], the viability at 28.5 h, 10 µM was determined as 95.9%.

As for `O=C(O)CCCN1C(=O)/C(=C/c2ccc(O)c(O)c2)SC1=S` [CBK262852], the viability at 28.5 h, 10 µM was 84.9%.

In the case of `Cc1c(C(C)NCC(O)c2ccco2)cnn1-c1ccc(C#N)cc1` (centres unmarked) [CBK306462], the viability at 28.5 h, 10 µM stood at 88.4%.

As to `COC(C)CN(C)C(=O)c1oc2cc(C)ccc2c1C` (centres unmarked) [CBK282043], the viability at 28.5 h, 10 µM was found to be 88.1%.

`CC(C)Oc1ncc(C(=O)NCc2cccc(NC(N)=O)c2)cc1Cl` [CBK306327]: the viability at 28.5 h, 10 µM came out at 94.4%.

As for `O=C1CCc2cccc(OCCO)c21` [CBK001442], the viability at 28.5 h, 10 µM came out at 92.7%.

For `O=C(O)CCc1ccc(-c2cn3ccnc3c(N3CCOCC3)n2)cc1` [CBK066166], the viability at 28.5 h, 10 µM was determined as 93.6%.

`Cc1ccc(C)c(CC(=O)N(CCC(=O)O)C2CCOCC2)c1` [CBK305469]: the viability at 28.5 h, 10 µM was 92.3%.

For the compound `Cc1cnc2[nH]c(C3CCCN(C(=O)c4cn(C)nc4C)C3)cc2c1` (centres unmarked) [CBK285170], the viability at 28.5 h, 10 µM was 110%.

With `CCOC(=O)c1[nH]c2ccccc2c1NC(=O)c1cc(F)cc(Cl)c1` [CBK160143], the viability at 28.5 h, 10 µM is 95.4%.

On to `CN1CCN(C(S)=Nc2ccc(S(N)(=O)=O)cc2)CC1` [CBK265223], for which the viability at 28.5 h, 10 µM came to 92.5%.

In the case of `Nc1nc2c(ncn2[C@@H]2O[C@H](CO)[C@H](O)C2O)c(=O)[nH]1` (some centres unmarked) [CBK201173], the viability at 28.5 h, 10 µM came to 96%.

As to `Cc1ccc2nc(C(=O)O)cc(C(=O)O)c2c1` [CBK261174], the viability at 28.5 h, 10 µM turned out to be 91.6%.

As for `COc1ccc(Oc2nccnc2N2CCN(Cc3ccc4c(c3)OCO4)CC2)cc1OC` [CBK083048T], the viability at 28.5 h, 10 µM was 106%.

With `CN(C)c1ccc(CC(=O)Nc2cnc(-c3cccc(C(F)(F)F)c3)c(-c3cccnc3)n2)cc1` [CBK036901], the viability at 28.5 h, 10 µM stood at 98.2%.

Take `COc1ccc(C(=O)NCC2(c3ccc(OC)c(OC)c3)CCCCC2)c(OC)c1` [CBK067049]: the viability at 28.5 h, 10 µM worked out at 82.8%.

For `CSCCN1CCC(Oc2nccnc2OCc2cc(C)on2)CC1` [CBK082966T], the viability at 28.5 h, 10 µM stood at 89.7%.

As to `O=C1c2ccccc2CN1CCNS(=O)(=O)c1ccc2oc3ccccc3c2c1` [CBK264918], the viability at 28.5 h, 10 µM amounted to 98.9%.

In the case of `Cc1ccccc1NC(=O)CC(C(=O)O)N(C)C` (centres unmarked) [CBK266924], the viability at 28.5 h, 10 µM is 103%.

Turning to `Fc1ccc2[nH]c3c(c2c1)CCN1C(c2cccnc2)N2CCC31CC2` (centres unmarked) [CBK284436], the viability at 28.5 h, 10 µM is 87.6%.

For the compound `CS(=O)(=O)NC1CCN(c2nc(C(F)(F)F)nc3ccsc23)CC1` [CBK304592], the viability at 28.5 h, 10 µM worked out at 109%.

As for `O=C(CSc1nnc(-c2ccccc2)c(-c2ccccc2)n1)Nc1ccc([N+](=O)[O-])cc1` [CBK263406], the viability at 28.5 h, 10 µM worked out at 109%.

For the compound `COc1ccc(CN2Cc3nc[nH]c3C[C@H]2C(=O)NCc2ccccc2)c2ccccc12` [CBK288976], the viability at 28.5 h, 10 µM came out at 86.5%.

`CC#Cc1cn([C@H]2C[C@@H](O)[C@@H](CO)O2)c(=O)[nH]c1=O` [CBK201182]: the viability at 28.5 h, 10 µM worked out at 104%.

Consider `Nc1ncc(-c2ccncc2)nc1NCC1CCOCC1` [CBK063816], for which the viability at 28.5 h, 10 µM came to 105%.

Regarding `Cc1cc(NC(=O)N2CCCN(CC3CCCCC3)CC2)no1` [CBK306239], the viability at 28.5 h, 10 µM stood at 99.9%.

In the case of `CCn1c(=N)c(C(=O)NCCOC)cc2c(=O)n3ccccc3nc21` [CBK287605], the viability at 28.5 h, 10 µM was 89.5%.

For the compound `CCOc1ccccc1NC(=O)NC(=O)C1CCN(CCCc2ccc3c(c2)OCO3)CC1` [CBK034924], the viability at 28.5 h, 10 µM is 88.6%.

On to `Oc1ccc(/C=N/Nc2nncc(-c3ccccc3)n2)c(O)c1O` [CBK262492], for which the viability at 28.5 h, 10 µM stood at 80.6%.

For the compound `c1coc(CNc2ncc(-c3ccc4c(c3)OCO4)c(-c3cccs3)n2)c1` [CBK286414], the viability at 28.5 h, 10 µM is 93.9%.

Regarding `O=C(CN1CCC2(CC1)CN(C(=O)CO)c1ccccc12)Nc1ccc(F)c(Cl)c1` [CBK131509], the viability at 28.5 h, 10 µM is 92.3%.

Consider `COc1ccccc1C(=O)NCCNC(=O)c1ccccn1` [CBK269174], for which the viability at 28.5 h, 10 µM amounted to 104%.

On to `O=C(Nc1ccccn1)c1nccnc1-c1ccc(COc2ccccc2)cc1` [CBK050835], for which the viability at 28.5 h, 10 µM amounted to 86.1%.

As for `O=C(NC(c1ccccc1)c1ccco1)C1CCN(C(=S)NCCc2ccccc2)CC1` (centres unmarked) [CBK060412], the viability at 28.5 h, 10 µM is 94.4%.

Take `Cc1ccc(OCc2nnc(SCc3cccc(C#N)c3)n2N)cc1C` [CBK267420]: the viability at 28.5 h, 10 µM is 84.1%.

For `CCCCOc1ccc(-c2nnn(CC(=O)NCc3ccccc3)n2)cc1` [CBK068557], the viability at 28.5 h, 10 µM was determined as 96.8%.

On to `COc1ccccc1-c1cccc(CC2(C(=O)NCCc3ccccc3)CCOCC2)c1` [CBK285593], for which the viability at 28.5 h, 10 µM turned out to be 93.6%.

In the case of `Cc1cc(COC(=O)Nc2cccnc2)cc(C)n1` [CBK138236], the viability at 28.5 h, 10 µM came to 83.6%.

Turning to `CCOC(=O)c1ccc(NC(=O)C(C)Oc2ccccc2C)cc1` (centres unmarked) [CBK268660], the viability at 28.5 h, 10 µM stood at 102%.

In the case of `OC[C@H]1O[C@@H](n2cnc3c(Cl)ncnc32)C[C@H]1O` [CBK201167], the viability at 28.5 h, 10 µM came to 99.6%.

On to `Cc1nnc2nc(-c3cccc(Cl)c3Cl)[nH]n12` [CBK263845], for which the viability at 28.5 h, 10 µM turned out to be 94.2%.

Consider `O=c1[nH]c(CSc2nnc(COc3ccccc3)o2)nc2ccccc12` [CBK269869], for which the viability at 28.5 h, 10 µM is 84.9%.

For `CCCOC1CCCN(c2nccc(-c3cc(C(=O)O)ccn3)n2)C1` (centres unmarked) [CBK307703], the viability at 28.5 h, 10 µM is 101%.

`CC(=O)NCCCCCC(=O)N1CCN(c2ccc(C(F)(F)F)cc2)CC1` [CBK091312]: the viability at 28.5 h, 10 µM was determined as 92.8%.

As for `CCCc1c(O)nc(SCC(=O)NCc2ccco2)[nH]c1=O` [CBK073278], the viability at 28.5 h, 10 µM stood at 95.2%.

For the compound `O=C(NC(=S)Nc1ccc(N2CCN(Cc3ccccc3Cl)CC2)cc1)c1ccco1` [CBK266066], the viability at 28.5 h, 10 µM was 101%.

As for `COc1cc(OC)c(NC(=O)CN(C)S(=O)(=O)c2cc(Cl)ccc2Cl)cc1Cl` [CBK267399], the viability at 28.5 h, 10 µM worked out at 91.3%.

With `CCC1CCc2c(sc(NC(=O)c3cc(-c4ccc(C)cc4C)nc4ccccc34)c2C(=O)OC)C1` (centres unmarked) [CBK262629], the viability at 28.5 h, 10 µM was found to be 89.2%.

`Cc1cc(NC(=O)c2cc(C)oc2C)no1` [CBK058081]: the viability at 28.5 h, 10 µM turned out to be 88.7%.

`CCCN(C(C)=O)c1nc(O)cc(C(F)(F)F)n1` [CBK000427]: the viability at 28.5 h, 10 µM is 85.5%.

Take `O=C(O)C[C@H](CNC(=O)COc1ccc2ccc(=O)oc2c1)c1ccc(Cl)cc1` [CBK286702]: the viability at 28.5 h, 10 µM is 113%.

Turning to `O=C(Nc1ccccc1)c1cccc(S(=O)(=O)NCc2cccs2)c1` [CBK058153], the viability at 28.5 h, 10 µM was 87.1%.

For the compound `CC1=NN(c2cccc(S(=O)(=O)O)c2C(=O)Nc2ccccc2)C(=O)C1` [CBK017343], the viability at 28.5 h, 10 µM came to 98.4%.

As to `CCN1CCN(c2ccc(NC(=O)c3cccc(OCc4ccccc4)c3)cc2)CC1` [CBK266471], the viability at 28.5 h, 10 µM came to 95%.

With `c1ccc(-c2nnc3ccccc3c2NCCCN2CCOCC2)cc1` [CBK066892], the viability at 28.5 h, 10 µM came out at 93.9%.

In the case of `CNC(=O)C1(Cc2cccc(-c3cccs3)c2)CCN(C(=O)c2ccccc2)CC1` [CBK285720], the viability at 28.5 h, 10 µM came to 88.3%.

Consider `CCN(CC)C(=O)Cn1c(=O)n(CC)c2ncccc21` [CBK282347], for which the viability at 28.5 h, 10 µM is 107%.

Take `O=C(O)CCNS(=O)(=O)c1ccc(Br)cc1` [CBK261941]: the viability at 28.5 h, 10 µM was determined as 90.6%.

On to `CC(=O)N1CCN(C(C(=O)O)c2c[nH]c3cc(NC(=O)c4ccccc4)ccc23)CC1` (centres unmarked) [CBK286680], for which the viability at 28.5 h, 10 µM was determined as 84.9%.

Take `COc1cccc(NC(=O)C2CCCCC2C(=O)O)c1` (centres unmarked) [CBK262410]: the viability at 28.5 h, 10 µM came out at 93.1%.

Consider `CCN(Cc1ccncc1)C(=O)Nc1cccnc1` [CBK145053], for which the viability at 28.5 h, 10 µM came to 111%.

`COc1ccc(C(=O)N(C)C)cc1OC` [CBK015550]: the viability at 28.5 h, 10 µM was 115%.

As to `O=C(O)c1ccccc1C(=O)N1CCN(Cc2ccc3c(c2)OCO3)CC1` [CBK074751], the viability at 28.5 h, 10 µM stood at 97.9%.

Consider `CCOc1ncccc1NC(=O)c1cnc2c(cnn2CC(C)C)c1` [CBK304288], for which the viability at 28.5 h, 10 µM amounted to 83.3%.

On to `O=C(C1CCCCC1)N1CCC(c2nnc(-c3ccsc3)o2)CC1` [CBK283380], for which the viability at 28.5 h, 10 µM came to 104%.

`CCOC(=O)c1cnc2c(C)cc(C)cc2c1NCCN1CCOCC1` [CBK264757]: the viability at 28.5 h, 10 µM was determined as 109%.

`OCC[C@H]1CN2CCCC2CN1Cc1cccn1-c1ccccc1F` (some centres unmarked) [CBK282977]: the viability at 28.5 h, 10 µM was determined as 93%.

Regarding `CSc1ccc(-c2nccnc2OCCC(C)C)cc1` [CBK106802], the viability at 28.5 h, 10 µM came out at 113%.

Take `CCc1ccc(O)c(NC(=S)NC(=O)c2cccc3c(Br)cccc23)c1` [CBK264385]: the viability at 28.5 h, 10 µM was 111%.

Consider `CN1CCC(N2CCN(C(=O)c3ccc4nc[nH]c4c3)CC2)CC1` [CBK149099], for which the viability at 28.5 h, 10 µM is 94.7%.

For `NC(=O)C1(Cc2ccc(-c3ccccc3)cc2)CCN(C(=O)Cc2ccccc2)CC1` [CBK285771], the viability at 28.5 h, 10 µM amounted to 115%.

Consider `CSc1nc(N)c2c3c(sc2n1)CN(C)CC3` [CBK018303], for which the viability at 28.5 h, 10 µM was 122%.

`CC(=O)NCCNC(=O)c1cnc(-c2ccc(Cl)cc2)c(-c2ccc(O)cc2)c1` [CBK036647]: the viability at 28.5 h, 10 µM is 101%.

Take `CC(=O)N1CCC(C(=O)NC(=O)NCCc2ccccc2)CC1` [CBK034851]: the viability at 28.5 h, 10 µM turned out to be 96.9%.

For `COc1cc(Nc2nc(-c3cccc(C(=O)NCCN(C)C)c3)cn3ccnc23)cc(OC)c1OC` [CBK066250], the viability at 28.5 h, 10 µM amounted to 89%.

Turning to `O=C(NCc1ccccn1)c1cc(-c2ccc(Cl)cc2)[nH]n1` [CBK116549], the viability at 28.5 h, 10 µM came to 99.5%.

For `O=S(=O)(NCc1ccc(F)cc1Cl)c1ccc(Cl)c(Cl)c1` [CBK043785], the viability at 28.5 h, 10 µM is 91%.

Consider `CCN(CC(C)C#N)C(=O)c1nn(-c2ccccc2)c(C)cc1=O` (centres unmarked) [CBK304925], for which the viability at 28.5 h, 10 µM came out at 109%.
